What all share (assay): NCI tumour cell line growth inhibition, 48 h
Test [1] deals with HCC-2998 colon.
Test [2] deals with CAKI-1 renal.
Test [3] relates to SK-MEL-2 melanoma.
Test [4] deals with HS 578T breast.
The test system of test [5] is HOP-62 NSCLC.
In test [6] the test system is NCI-H460 lung.
The subject of test [7] is SF-539 CNS.
Test [8] concerns RXF 393 renal.
Test [9] relates to M14 melanoma.
Test [10] deals with DU-145 prostate.

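These data come from cells grown in 96-well plates and exposed to compound for 48 hours at five concentrations. Abbreviation: GI50, concentration required for 50% inhibition of growth. TGI marks complete inhibition of growth.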

Take `CCN(CC)CCCC(C)NC(=S)N/N=C(\C)c1ccccn1` (stereo not given): the GI50 in [1] was 3.52 µM; in [2], 4.56 µM; in test [3], 5.54 µM; in test [4], 43.9 µM; in test [5], 5.86 µM; in test [6] it was 2.33 µM. Also, the GI50 is 3.33 µM in test [7], 2.14 µM in test [8], 2.8 µM in test [9] and 3.79 µM in [10]. In addition, the TGI in test [1] is above 100 µM; in test [2] it was above 100 µM; in test [3], above 100 µM; in [4], above 100 µM; in [5], 83.1 µM; in test [6], 15 µM. The TGI was 82 µM in test [7], 6.81 µM in test [8], 17.8 µM in [9] and above 100 µM in [10].

`N#Cc1ccccc1C#C/C=C\C#Cc1cnccn1`: the GI50 was 4.79 µM in [1]; 6.95 µM in test [2]; 8.34 µM in test [3]; 27.5 µM in test [4]; 29.3 µM in test [5]; 39.4 µM in test [6]. Also, the GI50 is 9.5 µM in test [7], above 37 µM in test [8], 5.78 µM in [9] and 25 µM in test [10]. In addition, the TGI was 28.2 µM in test [1]; above 23.4 µM in test [2]; above 100 µM in test [3]; above 93.1 µM in test [4]; above 64.6 µM in test [5]; above 100 µM in test [6]. For the same compound, the TGI was 46.2 µM in test [7], above 74.1 µM in test [8], 13.8 µM in test [9] and above 100 µM in test [10].

`COc1ccc(/C=C2\CC(C)CC3C2=NN(C(C)=O)C3c2ccc(OC)c(OC)c2)cc1OC` (stereo not given): the GI50 was 12 µM in test [1]; 53.3 µM in test [2]; 15.4 µM in [3]; 26.2 µM in test [4]; 17.1 µM in [5]; 15.5 µM in test [6]. The GI50 was 20.2 µM in test [7], 17.9 µM in test [8], 15.1 µM in test [9] and 19.7 µM in test [10]. The TGI in [1] is 24.3 µM; in test [2] it was above 100 µM; in [3], 30 µM; in test [4], 61.3 µM; in test [5], 37.2 µM; in test [6], 34.9 µM. Also, the TGI is 37.8 µM in [7], 39 µM in test [8], 28.7 µM in test [9] and 47.8 µM in [10].

Regarding `N#CC1=C(N)Oc2c(ccc3ccccc23)C1c1ccccc1Cl` (stereo not given), the GI50 in [1] was 0.429 µM; in test [2] it was 0.167 µM; in test [3], 0.558 µM; in test [4], 0.226 µM; in test [5], 0.374 µM; in [6], 0.335 µM. Moreover, the GI50 was 0.233 µM in test [7], 0.238 µM in [8], 0.188 µM in [9] and 0.432 µM in [10]. Besides, the TGI in test [1] was 11.6 µM; in [2], 20.9 µM; in [3] it was 18 µM; in test [4] it was 2.94 µM; in test [5], 17.3 µM; in test [6], 1.34 µM. Also, the TGI was determined as 0.792 µM in test [7], 18.6 µM in [8], 3.39 µM in test [9] and 12.3 µM in test [10].

`COc1cc(C2C3=C(COC3=O)N(CCO)c3cc4c(cc32)CCC4)cc(OC)c1OC` (stereo not given): the GI50 is 0.0693 µM in [1]; 0.484 µM in test [2]; 0.146 µM in test [3]; 0.104 µM in [4]; 0.121 µM in test [5]; 0.106 µM in [6]. Besides, the GI50 in test [7] is 0.091 µM; in test [8], 0.0446 µM; in [9], 0.0672 µM; in test [10] it was 0.0787 µM. Moreover, the TGI was 0.164 µM in test [1]; above 32.5 µM in test [2]; above 9.09 µM in test [3]; above 32.5 µM in [4]; above 32.5 µM in test [5]; 1.1 µM in test [6]. Further, the TGI in [7] was 0.663 µM; in test [8] it was 0.141 µM; in test [9], 0.199 µM; in [10] it was 0.214 µM.

`CCOC(=O)C(Cc1ccc(N(CCCl)CCCl)cc1)NC(=O)C(CC(C)C)NC(C)=O` (stereo not given): the GI50 in [1] was 1.82 µM; in [2] it was 0.32 µM; in test [3] it was 2.61 µM; in test [4] it was 2.55 µM; in test [5], 1.32 µM; in test [6], 0.0763 µM. The GI50 in [7] was 1.09 µM; in test [8], 0.944 µM; in [9], 0.568 µM; in [10], 0.472 µM. Moreover, the TGI in [1] amounted to 5.95 µM; in test [2], 2.32 µM; in [3], 5.13 µM; in test [4] it was 7.92 µM; in test [5], 3.8 µM; in test [6] it was 1.54 µM. Moreover, the TGI in test [7] worked out at 7.01 µM; in [8], 2.3 µM; in [9], 2.19 µM; in [10], 4.41 µM.

`CC[N+]1(C)CCC(O)(/C=C/c2ccccc2)C(C(=O)/C=C/c2ccccc2)C1` (stereo not given): the TGI in test [1] is 30.8 µM; in test [2], 3.42 µM; in test [3], 39.5 µM; in test [4], above 100 µM; in [5], 35.5 µM; in test [6], 43.5 µM. The TGI in [7] worked out at 19 µM; in [8] it was 19.7 µM; in test [9], 25.8 µM; in test [10], 39.1 µM.
